# Measurements as given in patent publication US20200046641A1, “LIPOSOMES FOR THE TREATMENT OF OCULAR DISEASES” (TDC Technology Dedicated to Care srl, priority 2018, published 2020).
# System: chorioallantoic membrane (CAM) of 10 days embryonated eggs
# Assay: Ocular irritation by HET CAM test
# Design: species or system hen
# Details: 0.3 ml applied on CAM; bleeding, vasoconstriction, clotting
# Excerpt: The in vitro test described in the present example has been carried out in order to evaluate if the ocular topical administration of the liposomes could cause irritation to the eye. To such purpose, the in vitro HET CAM test as described in […]-Recommended Test Method Protocol has been carried out: Hen's Egg Test-Chorioallantoic Membrane (HET-CAM) Test Method. The HET CAM test has been carried out by observing the irritation effects (bleeding, vasoconstriction and clotting) induced on the chorioallantoic membrane (CAM) of 10 days embryonated eggs by applying 0.3 ml of liposomes under test and calculating the ocular irritation index (“OII”) according to the formula described in Table 6. [table] The liposomes under examination in the present test are F1 and F2 liposomes. By means of the same method, the following controls have been also tested: SDS 1% (positive control with slow irritation), 0.1 N NaOH (positive control with fast irritation) and NaCl 0.9% (negative control). The embryonated eggs for this test have been obtained by the […]. farm, Tarragona, Spain. The eggs are kept at a temperature of 12±1° C. for at least 24 hours before placing them into the incubator at controlled temperature (37.8° C.) and humidity (50-60%) during the incubation days. The data have been analyzed as mean ±standard deviation at the moment when the injury occurred (n=3/group).
row,SMILES,Irritating effects (HET CAM)
1,"[Na+].[OH-] [0.1 N NaOH, NaOH]",irritating effects
2,"CCCCCCCCCCCCOS(=O)(=O)[O-].[Na+] [SDS 1%, SDS]",irritating effects
